From patent US9642897B2, “Treatment of bone diseases” (THE UNIVERSITY OF SYDNEY, priority 2011, dated 2017)
Entries after “also recorded” stand apart in the source; their conditions may differ.

Columns and labels:
[1] = system: gut-derived serotonin (GDS); conditions: Yadav et al. (2010); cited from earlier work
[2] = system: IDO-1 gene expression; experiment: IDO-1 gene expression in osteogenic differentiating MSC (cDNA array / real time PCR); type: cell-based, human; conditions: for increase in IDO-1 expression: differentiating osteoblasts
Description: (§1) Human mesenchymal stem cells (MSC) (BioWhittaker, Walkersville, Md., USA) were plated at a density of 5×10^5 cells per well in 150 cm^2 dishes containing MSC growth medium (GM) (BioWhittaker, Walkersville, Md., USA) with 10% fetal calf serum (FCS) and incubated at 37° C. After the cells reached 60% confluence, media was replaced with either GM or osteoblastogenesis induction media (OIM) (prepared with MSCGM, 10% FCS, […] dexamethasone, 10 mmol/L β glycerol phosphate and 50 μg/mL ascorbic acid) for 21 days. Media was changed every three days. Media obtained at the beginning of the 1st, 2nd and 3rd wk of differentiation as well as conditioned media were collected for measurement of IFNγ. Concentrations of IFNγ in the conditioned media were measured from both GM and OM treated cells using Human […] DuoSet ELISA Development Kit (R&D Systems, Minneapolis, Mich., USA). To compare between the osteogenic and the immune effect of IFNγ, Jurkat cells and human T lymphocytes were plated at a density of 5×10^5 cells per well in 150 cm^2 dishes containing RPMI media.
Cells were treated with either IFNγ (100 nM) or vehicle for two weeks. At week 2, total RNA was extracted from treated MSC, Jurkat T lymphocytes using an Easy-Kit mini prep (Qiagen, Valencia, Calif., USA). Generation of cDNA, fluorescent labeling, hybridization to the gene chip and data analysis were performed by the Genomics Laboratory at Ramacciotti Institute (Sydney, Australia). 12,000 human genes were examined and expressed sequences tags (ESTs) on the array Human Genome U95A (Affymetrix, Inc. Santa Clara, Calif., USA) and analyzed the results using the MicroDB™ Software (Affymetrix, Inc. Santa Clara, Calif., USA). Expression values of the differentiated and non-differentiated MSC and between MSC vs. Jurkat cells and T lymphocytes were compared using Student's t test. Genes with significant changes were then grouped depending on their known function. The biological function of each gene product was obtained from literature searches in medical databases. This experiment was repeated twice and significant changes in gene expression determined by the method of biological duplicates.
A cDNA gene array analysis was performed in MSC induced to differentiate into osteoblasts using osteogenic media for 7 days while being treated with an anabolic dose of IFNγ (100 nM) in vitro. A comparison of was made of cDNA data obtained from differentiating MSC, human primary T-lymphocytes and Jurkat cells either untreated or treated with IFNγ (FIG. 1). The aims of this approach were not only to characterise the osteogenic effect of IFNγ on osteogenic differentiating MSC, but also to compare the osteogenic vs. the immunogenic profile of IFNγ. […]

[3] = system: TPH-1 gene expression; experiment: TPH-1 gene expression in IFNγ-treated immune cells (Jurkat cells, T lymphocytes); type: cell-based, human; conditions: immune cells treated with IFNγ
Description: as §1, with “To compare between the osteogenic and the immune effect of IFNγ, Jurkat cells and human T lymphocytes were plated at a density of 5×10^5 cells per well in 150 cm^2 dishes containing RPMI media.” left out
(§2) Cells were treated with either IFNγ (100 nM) or vehicle for two weeks. […] 12,000 human genes were examined and expressed sequences tags (ESTs) on the array Human Genome U95A (Affymetrix, Inc. Santa Clara, Calif., USA) and analyzed the results using the MicroDB™ Software (Affymetrix, Inc. Santa Clara, Calif., USA). […] This experiment was repeated twice and significant changes in gene expression determined by the method of biological duplicates. […]

[4] = system: IDO-1 gene expression; experiment: IDO-1 gene expression in IFNγ-treated immune cells (Jurkat cells, T lymphocytes); type: cell-based, human; conditions: immune cells treated with IFNγ
Description: as §1, with “To compare between the osteogenic and the immune effect of IFNγ, Jurkat cells and human T lymphocytes were plated at a density of 5×10^5 cells per well in 150 cm^2 dishes containing RPMI media.” left out
as §2

[5] = system: mesenchymal stem cells (MSC); experiment: Mineralization (alizarin red staining) of osteogenic differentiating MSC; type: cell-based, human
Description: as §1
(§3) Subsequently, the effect of chemical inhibition/stimulation of the intermediate and end products of kynurenine activation on osteogenic differentiating MSC was then characterised.
These compounds were added to the MSC media on day one of differentiation. Cells were treated for […]. Media was changed every three days. After three weeks of treatment, osteoblastogenesis and changes in osteogenic genes were quantified as described above.

[6] = system: IDO-1; experiment: Kynurenine/tryptophan ratio by HPLC in differentiating MSC; type: cell-based, human; conditions: MSC treated with IFNγ
[7] = system: serotonin; experiment: Serotonin concentrations in MSC supernatants (ELISA); type: cell-based, human; conditions: IFNγ treated vs untreated cells
Source text: In addition, there was no difference in the serotonin concentrations (measured using ELISA) in the supernatants obtained from osteoblastogenesis induction media (OIM)- and IFNγ-treated vs. untreated cells. […] This effect is independent of serotonin concentration in the media.

[8] = system: IDO-1; experiment: Immunohistochemistry of IDO-1 in gut and bone of IFNγ-treated mice; type: in vivo, C57BL/6 mice; conditions: IFNγ 2,000 IU, 3 times a week for 6 weeks
Description: (§4) Animals were purchased from Jackson Laboratories (Bar Harbor, Me., USA). 8-week-old virgin female C57BL/6 mice (Charles River Laboratories, Quebec, Canada) were used to study the effect of exogenous administration of IFN-γ on bone and gut expression of IDO-1 and TPH-1. Bilateral ovariectomies (OVX) were performed under general anesthesia. Another group of animals was sham-operated (SHAM), in which ovaries were exteriorized but replaced intact. Two weeks after surgery, mice (OVX and SHAM) received intraperitoneal injections of 2000 IU of IFN-γ (R&D Systems, Inc., Minneapolis, Minn., USA) or vehicle (PBS) three times weekly for a total of 6 weeks. Mice were housed in cages in a limited-access room. Animal husbandry adhered to Canadian Council on Animal Care Standards, and all protocols were approved by the McGill University Health Center Animal Care Utilization Committee. […]
(§5) For immunohistochemistry, gut and bone sections were incubated overnight at 4° C. with a goat polyclonal antibody IgG against either IDO-1 or TPH-1 (Santacruz Biotechnology Inc. Santa Cruz Calif., USA), Primary antibody was detected by incubation with an anti-goat IgG secondary antibody conjugated with horseradish peroxidase (1:300 in BSA 1%, Sigma-Aldrich, St. Louis, Mo., USA)]. […] Photographs were taken under an Olympus fluorescence microscope controlled by an IPLab system. […]

[9] = system: TPH-1; experiment: Immunohistochemistry of TPH-1 in gut and bone of IFNγ-treated mice; type: in vivo, C57BL/6 mice; conditions: IFNγ 2,000 IU, 3 times a week for 6 weeks
Description: as §4, §5

[10] = system: gut derived serotonin; experiment: Gut derived serotonin (GDS) in gut of IFNγ-treated mice; type: in vivo, C57BL/6 mice; conditions: IFNγ 2,000 IU, 3 times a week for 6 weeks
Description: Animals were purchased from Jackson Laboratories (Bar Harbor, Me., USA). 8-week-old virgin female C57BL/6 mice (Charles River Laboratories, Quebec, Canada) were used to study the effect of exogenous administration of IFN-γ on bone and gut expression of IDO-1 and TPH-1. Bilateral ovariectomies (OVX) were performed under general anesthesia. Another group of animals was sham-operated (SHAM), in which ovaries were exteriorized but replaced intact. Two weeks after surgery, mice (OVX and SHAM) received intraperitoneal injections of 2000 IU of IFN-γ (R&D Systems, Inc., Minneapolis, Minn., USA) or vehicle (PBS) three times weekly for a total of 6 weeks. Mice were housed in cages in a limited-access room. Animal husbandry adhered to Canadian Council on Animal Care Standards, and all protocols were approved by the McGill University Health Center Animal Care Utilization Committee.
One side femur and proximal gut from each animal in each group was removed at the time of euthanization. Bone was fixed in 70% ethanol, dehydrated, and embedded undecalcified in methyl methacrylate (J-T Baker, Phillipsburg, N.J., USA). At 50-μm intervals, longitudinal sections 5- and 8-μm thick were cut using a Polycut-E microtome (Reichert-Jung Leica, Heerbrugg, Switzerland). Gut was fixed and embedded in paraffin for future analysis. Gut sections were obtained as described above.

[11] = rats; cited from earlier work
[12] = system: RUNX2, OCN and OPN; experiment: Osteogenic gene expression (RUNX2, OCN, OPN) in differentiating MSC; type: cell-based, human; conditions: for relative gene expression of RUNX2, OCN and OPN: differentiating MSC
Description: as §3
These compounds were added to the MSC media on day one of differentiation. […] Media was changed every three days. […]

[13] = system: bone marrow stromal cells (BMSC) from IDO-1 KO and WT mice; experiment: Osteogenic differentiation of BMSC from IDO-1 KO and WT mice (alizarin red); type: cell-based; conditions: vs vehicle
Description: One side tibiae from 9-month-old IDO-1^−/− and IDO-1^+/+ mice (n=6 per group) were flushed using a 21-gauge needle attached to a 10 ml syringe filled with Dulbecco's modified Eagle's medium (DME) (GIBCO BRL, Gaithersburg, Md., USA). The bone marrow cells were filtered through a cell strainer with a 70-micron nylon mesh (BD Bioscience, Bedford, Mass., USA) and plated in 10 cm^2 tissue culture dishes. The cells were incubated in growth medium at 37° C. with 5% humidified CO2 and isolated by their adherence to tissue culture plastic. Medium was aspirated and replaced with fresh medium every 2 to 3 days to remove non-adherent cells. The adherent MSC were grown to confluency for about 7 days and defined as MSC at passage 0, harvested with 0.25% trypsin and 1 mM EDTA for 5 min at 37° C., diluted 1:3 in growth medium, plated and grown to confluency for further expansion. After 2nd and 3rd passages, MSC were used for subsequent experiments.
To induce differentiation, a total of 10^4 cells were diluted in osteogenic medium and plated in 24 dishes per group in the presence or absence of either quinolinic or picolinic acid. Media was aspirated and replaced with fresh osteogenic medium every 3 days. At 21 days, medium was removed and cultures were fixed in 10% v/v formol/saline solution for 5 min. Cultures were stained with Alizarin Red, which was then extracted and quantified at 570 nm.

[14] = 1000 nM quinolinic acid, 14 days, vs untreated cells

Molecule: Nc1nc(OC(c2ccc(-c3cccc(F)c3)cc2)C(F)(F)F)cc(-c2ccc(C[C@H](N)C(=O)O)cc2)n1 (stereo partly shown) [LP533401]
- bone formation / osteoporosis in OVX mice [1]: stimulates bone formation and recues OVX mice from osteoporosis

Molecule: IFNγ: interferon gamma, stimulator of IDO-1
- IDO-1 gene expression ([2]; IFNγ 100 nM, differentiating MSC in osteogenic media 7 days, vs untreated MSC and immune cells): 12 fold
- increase in IDO-1 expression ([2]; 14th day): 13 fold
- increase in IDO-1 expression ([2]; after 7 days): 36 fold
- TPH-1 gene expression [3]: high levels
- IDO-1 gene expression [4]: without affecting
- mineralization (alizarin red staining) ([5]; IFNγ 100 ng/ml, one week of osteogenic differentiation, vs vehicle): higher levels of mineralization
- kynurenine/tryptophan ratio (tryptophan degradation) [6]: higher kynurenine/tryptophan ratio
- serotonin concentrations in the supernatants [7]: No changes
- levels of IDO-1 in gut and bone marrow [8]: higher levels of IDO-1
- expression of TPH-1 in gut and bone [9]: remains unaltered
- GDS in the gut [10]: remains unaltered

Molecule: CC[C@H](C)[C@H](NC(=O)[C@H](CCC(=O)O)NC(=O)[C@H](CO)NC(=O)[C@@H](NC(=O)[C@@H](N)CO)C(C)C)C(=O)N[C@@H](CCC(N)=O)C(=O)N[C@@H](CC(C)C)C(=O)N[C@@H](CCSC)C(=O)N[C@@H](Cc1cnc[nH]1)C(=O)N[C@@H](CC(N)=O)C(=O)N[C@@H](CC(C)C)C(=O)NCC(=O)N[C@@H](CCCCN)C(=O)N[C@@H](Cc1cnc[nH]1)C(=O)N[C@@H](CC(C)C)C(=O)N[C@@H](CC(N)=O)C(=O)N[C@@H](CO)C(=O)N[C@@H](CCSC)C(=O)N[C@@H](CCC(=O)O)C(=O)N[C@@H](CCCN=C(N)N)C(=O)N[C@H](C(=O)N[C@@H](CCC(=O)O)C(=O)N[C@@H](Cc1c[nH]c2ccccc12)C(=O)N[C@@H](CC(C)C)C(=O)N[C@@H](CCCN=C(N)N)C(=O)N[C@@H](CCCCN)C(=O)N[C@@H](CCCCN)C(=O)N[C@@H](CC(C)C)C(=O)N[C@@H](CCC(N)=O)C(=O)N[C@@H](CC(=O)O)C(=O)N[C@H](C(=O)N[C@@H](Cc1cnc[nH]1)C(=O)N[C@@H](CC(N)=O)C(=O)N[C@@H](Cc1ccccc1)C(=O)O)C(C)C)C(C)C [teriparatide]
- tumour growth [11]: cause malignant tumour growth (osteogenic carcinoma)

Molecule: Nc1ccccc1C(=O)CC(N)C(=O)O [L-kynurenine, 2-amino-4-(2-aminophenyl)-4-oxo-butanoic acid, reference compound]
- relative gene expression of RUNX2, OCN and OPN [12]: not

Molecule: CN[C@H](Cc1c[nH]c2ccccc12)C(=O)O [methyl-D-tryptophan, reference compound]
- RE of IDO-1 ([2]; day 14 of differentiation, in the presence of inhibitor, vs control): 0.02
- mineralization measured by alizarin red ([5]; inhibition of IDO-1): significant decrease
- osteogenic genes expression ([12]; with IDO-1 inhibition): reduced

Molecule: O=C(O)c1cccnc1C(=O)O [QA, 2,3-Pyridinedicarboxylic acid]
- osteoblastogenesis / mineralisation (alizarin red) ([5]; MSC in OIM, 2 weeks): accelerated mineralisation; also recorded: stimulate osteoblastogenesis
- relative expression (RE) RUNX2 [12, 14]: 3 fold
- relative expression (RE) osteopontin [12, 14]: 6 fold
- relative gene expression of RUNX2, OCN and OPN [12]: increased
- mineralisation (alizarin red staining) [13]: higher levels of mineralisation
